Where “and” joins values, the source holds several entries; their conditions need not be identical. Equal values may be shown once.
Molecular target: D(3) dopamine receptor (Rattus norvegicus, UniProt P19020)
Sequence (P19020 whole entry): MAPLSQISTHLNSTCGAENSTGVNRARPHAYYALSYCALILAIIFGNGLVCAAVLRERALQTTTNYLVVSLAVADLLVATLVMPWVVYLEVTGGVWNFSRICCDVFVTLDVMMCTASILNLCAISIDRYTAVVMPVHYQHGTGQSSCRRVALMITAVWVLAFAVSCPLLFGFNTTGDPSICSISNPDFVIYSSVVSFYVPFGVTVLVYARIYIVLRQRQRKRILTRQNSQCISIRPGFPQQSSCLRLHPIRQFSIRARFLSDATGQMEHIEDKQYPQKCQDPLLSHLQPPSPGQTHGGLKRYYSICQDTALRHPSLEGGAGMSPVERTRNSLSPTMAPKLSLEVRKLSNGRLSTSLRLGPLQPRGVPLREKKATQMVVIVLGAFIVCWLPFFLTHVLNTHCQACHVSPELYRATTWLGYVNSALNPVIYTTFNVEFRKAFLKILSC

Compound | Ki
Nc1nc2c(ncn2[C@@H]2O[C@H](COP(=O)(O)OP(=O)(O)NP(=O)(O)O)[C@@H](O)[C@H]2O)c(=O)[nH]1 [Guanylyl imidodiphosphate] | 264 nM and 617 nM
CCc1cc(Cl)c(OC)c(C(=O)NC[C@@H]2CCCN2CC)c1O [3-Chloro-5-ethyl-N-((S)-1-ethyl-pyrrolidin-2-ylmethyl)-6-hydroxy-2-methoxy-benzamide] | 0.16 nM and 0.46 nM

From BindingDB's records for PubMed 8301592 (Washington University, 1994)
